Patent US20130130306A1, “ZN (II) BASED COLORIMETRIC SENSOR AND PROCESS FOR THE PREPARATION THEREOF” (COUNCIL OF SCIENTIFIC & INDUSTRIAL RESEARCH, priority 2010, published 2013)
Where “and” joins values, the source holds several entries; their conditions need not be identical. Identical values can stand only once.

Assays:
[1] = UV-vis spectral response and spectrophotometric titration with CTP; type: binding
Procedure: (§1) In order to examine the binding behaviour of the Zn-complex (L.Zn) (Scheme 1, Formula 1A) to various important anions (like ATP, CTP, ADP, AMP, PPi, H2PO4^−, SO4^2−, CH3CO2^−, I^−, Br^−, Cl^− and F^−) the following experiment was conducted. A solution (˜21 mM) for of sodium salts of ATP, CTP, ADP, AMP, PPi, H2PO4^−, SO4^−, CH3CO2^−, I^−, Br^−, Cl^−, and F^− were prepared using respective salt in 10 mM HEPES buffer solutions (pH 7.2) and was stored for use. Further, a solution (44.35 μM) of the compound L.Zn (Scheme 1, Formula 1A) was prepared using doubly-distilled and deionized water and stored. These stored solutions were used on the day of preparation of the solution for experiment. […]
(§2) A solution of L.Zn (Scheme 1, Formula 1A) (8.87 μM) in aqueous medium was treated with excess amount of ˜500 μM of different phosphate anions like H2PO4^−, PPi, AMP, ADP, ATP and CTP. […] Thus L.Zn (Scheme 1, Formula 1A) can bind ATP selectively among various phosphate anions and the color change associated with the binding of ATP can be detected through naked eye (FIG. 2).
A 1.0 mL of stored solution L.Zn (Scheme 1, Formula 1A) ([L.Zn]=8.95 μM) was put in a test-tube, such that, the final concentration of the L.Zn solution was 1.79 μM to this varying amount of CTP (0.1-4 mL of the stored CTP solution (12.71 mM) was added. Resulting solution was then diluted by addition of a 10 mM HEPES buffer solution (N-(2-hydroxyethyl)-piperazine-N′-2-ethanesulfonic acid) (pH 7.2) maintaining total volume of the resultant aliquot of 5 mL, which was used for spectrophotometric measurements by putting a quartz spectrophotometric cell (3.5 mL capacity). The total spectral change was measured using a spectrophotometer (Shimadzu UV-3101 PC) after appropriate base line correction. […]

[2] = Absorption and 31P NMR study of binding to various anions
Procedure: as §1

[3] = UV-vis spectral response and spectrophotometric titration with ATP; type: binding; details: for binding constant for the formation of the complex L.Zn-ATP: spectrophotometric titration, pH 7.2, 10 mM HEPES, 25° C.
Procedure: In order to examine the binding behaviour of the Zn-complex (L.Zn) (Scheme 1, Formula 1A) to various important anions (like ATP, CTP, ADP, AMP, PPi, H2PO4^−, SO4^2−, CH3CO2^−, I^−, Br^−, Cl^− and F^−) the following experiment was conducted. A solution (˜21 mM) for of sodium salts of ATP, CTP, ADP, AMP, PPi, H2PO4^−, SO4^−, CH3CO2^−, I^−, Br^−, Cl^−, and F^− were prepared using respective salt in 10 mM HEPES buffer solutions (pH 7.2) and was stored for use. Further, a solution (44.35 μM) of the compound L.Zn (Scheme 1, Formula 1A) was prepared using doubly-distilled and deionized water and stored. These stored solutions were used on the day of preparation of the solution for experiment.
A test solution was used after 1 mL of a probe storage solution (the previously prepared and stored solution of 44.35 μM for the compound (L.Zn) (Scheme 1, Formula 1A of the present invention) was put in a 10 mL test tube, such that the final concentration of the probe storage solution was 8.87 μM. To this 4 mL of each of the previous prepared and stored solutions of ATP and other anions (CTP, ADP, AMP, PPi, H2PO4^−, SO4^2−, CH3CO2^−, I^−, Br^−, Cl^− and F^−) was added to the test tube such that the aliquot of each of the solutions was (17 mM). Then the resultant solution was used for UV-vis spectral measurement after appropriate base line correction using a double beam spectrophotometer (Shimadzu UV-3101 PC) and the results thereof are shown in FIG. 1.
Thus a red shift of 40 nm was observed on addition of the solution of ATP (˜1920 equiv.) to the solution of L.Zn (Scheme 1, Formula 1A). […]
as §2, with “2). […]” for “2).”
A 1.0 mL of stored solution of L.Zn (Scheme 1, Formula 1A) ([L.Zn]=47.3 μM) was put in a test-tube, such that, the final concentration of the L.Zn solution was 9.46 μM. To this varying amount of ATP (0.1-4 mL of the stored ATP solution (21.6 mM) was added. Resulting solution was then diluted by addition of a 10 mM HEPES buffer solution (pH 7.2) maintaining total volume of the resultant aliquot of 5 mL, which was used for spectrophotometric measurements using a double beam spectrophotometer and quartz spectrophotometric cell (3.5 mL capacity). The total spectral change was measured using a double beam spectrophotometer (Shimadzu UV-3101 PC) after appropriate base line correction. Slit width for all experiments during this titration was kept unchanged at 0.2 nm and the results thereof are shown in FIG. 3. […]

[4] = Lipophilic nature of the dye
[5] = L.Zn 8.87 μM in aqueous medium, ~500 μM anion

## CN(C)c1ccc(N=Nc2ccc(S(=O)(=O)N3CCCNCCNCCCNCC3)cc2)cc1.O=[N+]([O-])[O-].O=[N+]([O-])[O-].[Zn+2] [L.Zn]
[1]; [5]
  color change on addition of CTP (naked eye): Slight color change
[1]; pH 7.2, L.Zn 8.87 μM, anion 17 mM
  red shift of absorption on addition of CTP: 9 nm
[1]; spectrophotometric titration, pH 7.2, 10 mM HEPES, 25° C.
  binding constant for the formation of the complex L.Zn-CTP: 220 (±+15) M^−1
[2]; 31P NMR and spectral data
  observed binding preference / trend in binding affinity: ATP>>CTP>ADP>>AMP
[2]; 2000 equivalents of other anions, pH 7.2
  change of absorption spectrum on addition of other anions: no change was observed
[3]; [5]
  color change on addition of ATP (naked eye): significant color change
[3]; from 463 nm to 503 nm, pH 7.2, ~1920 equiv. ATP
  shift of absorption maxima on binding to ATP: 40 nm
[3]
  binding constant for the formation of the complex L.Zn-ATP: 978 ± 15 M⁻¹ and 978 ± 4 M⁻¹
[3]; listed as compound of formula 1A
  binding constant for the formation of the complex L.Zn-ATP: 978 ± 4 M⁻¹
[4]
  lipophilic nature: non-lipophilic
